Data: US11479539B2, “Small molecule modulators of the BTB domain of Keap1” (MedImmune Limited, priority 2017, dated 2022)

What follows are compounds tested against Keap1 (Homo sapiens (Human), UniProt Q14145) (assay: HEK293 ARE luciferase assay). Details: HEK-293 ARE firefly luciferase transiently transfected cells; 18 h incubation; mean of 1 to 20 individual measurements.
Type: cell-based
Outline: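 Keap1 inhibition read as Nrf2-driven luciferase rise: compounds dosed in 10 points up to 100 μM (0.3% DMSO) on HEK-293 ARE luciferase cells, 10,000/well, 18 h at 37 °C, then SteadyGlo luminescence. Scaled between DMSO vehicle and 30 μM tBHQ; values average 1-20 runs.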

Chain of Keap1 (Q14145 whole entry): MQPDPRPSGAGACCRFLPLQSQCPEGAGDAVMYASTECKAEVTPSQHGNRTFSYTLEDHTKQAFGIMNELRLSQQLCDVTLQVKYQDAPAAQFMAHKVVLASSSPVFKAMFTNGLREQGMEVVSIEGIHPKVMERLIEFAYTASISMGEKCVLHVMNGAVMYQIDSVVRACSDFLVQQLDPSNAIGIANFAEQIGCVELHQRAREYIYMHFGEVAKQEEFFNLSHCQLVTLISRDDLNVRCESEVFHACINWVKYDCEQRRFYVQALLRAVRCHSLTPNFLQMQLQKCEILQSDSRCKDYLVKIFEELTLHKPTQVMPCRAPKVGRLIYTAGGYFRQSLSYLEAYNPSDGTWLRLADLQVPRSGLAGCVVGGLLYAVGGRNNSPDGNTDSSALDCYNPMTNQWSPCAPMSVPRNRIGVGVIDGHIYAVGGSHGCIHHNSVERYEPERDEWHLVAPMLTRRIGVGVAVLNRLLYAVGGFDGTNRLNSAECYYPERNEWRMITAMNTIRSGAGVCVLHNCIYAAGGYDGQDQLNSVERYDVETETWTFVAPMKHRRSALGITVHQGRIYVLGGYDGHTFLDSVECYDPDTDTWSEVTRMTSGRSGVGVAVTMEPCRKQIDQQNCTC

| SMILES | EC50 [nM] |
| --- | --- |
| COC1(c2ncc(F)cc2-c2cnn(-c3ccccc3)c2)C=C(C#N)C(=O)C(C)(C)C1 (stereo not shown) [Compound 179, 3-[5-fluoro-3-(1-phenyl-1H-pyrazol-4-yl)pyridin-2-yl]-3-methoxy-5,5-dimethyl-6-oxocyclohex-1-ene-1-carbonitrile] | 7 |
| COC1(c2ncc(F)cc2-c2cnn(-c3ccccc3)c2)C=C(C#N)C(=O)C(C)(C)C1 (single isomer, unassigned) [Compound 81, 3-[5-fluoro-3-(1-phenylpyrazol-4-yl)-2-pyridyl]-3-methoxy-5,5-dimethyl-6-oxo-cyclohexene-1-carbonitrile] | 2 |
| COC1(c2ncc(F)cc2-c2cncc(F)c2)C=C(C#N)C(=O)C(C)(C)C1 (stereo not shown) [Compound 182, 3-(5,5′-difluoro[3,3′-bipyridin]-2-yl)-3-methoxy-5,5-dimethyl-6-oxocyclohex-1-ene-1-carbonitrile] | 105 |
| COC1(c2ncc(F)cc2-c2cc(C)nc(C)c2)C=C(C#N)C(=O)C(C)(C)C1 (single isomer, unassigned) [Compound 77, 3-[3-(2,6-dimethyl-4-pyridyl)-5-fluoro-2-pyridyl]-3-methoxy-5,5-dimethyl-6-oxo-cyclohexene-1-carbonitrile] | 4 |
| COC1(c2cccnc2-c2cnn(C)c2)C=C(C#N)C(=O)C(C)(C)C1 (stereo not shown) [Compound 25, 3-methoxy-5,5-dimethyl-3-[2-(1-methylpyrazol-4-yl)-3-pyridyl]-6-oxo-cyclohexene-1-carbonitrile] | 70 |
| COC1(c2ncc(F)cc2OC(F)F)C=C(C#N)C(=O)C2(CC2)C1 (stereo not shown) [Compound 160, 7-[3-(difluoromethoxy)-5-fluoropyridin-2-yl]-7-methoxy-4-oxospiro[2.5]oct-5-ene-5-carbonitrile] | 20 |
| COC1(c2ncc(F)cc2-c2ccc(C(F)(F)F)nc2)C=C(C#N)C(=O)C(C)(C)C1 (single isomer, unassigned) [Compound 90, 3-[5-fluoro-3-[6-(trifluoromethyl)-3-pyridyl]-2-pyridyl]-3-methoxy-5,5-dimethyl-6-oxo-cyclohexene-1-carbonitrile] | 11 |
| C/C=C/c1cc(F)cnc1C1(OC)C=C(C#N)C(=O)C(C)(C)C1 (stereo not shown) [Compound 176, 3-{5-fluoro-3-[(1E)-prop-1-en-1-yl]pyridin-2-yl}-3-methoxy-5,5-dimethyl-6-oxocyclohex-1-ene-1-carbonitrile] | 19 |
| COC1(c2ncc(F)cc2-c2cccn(C)c2=O)C=C(C#N)C(=O)C(C)(C)C1 (stereo not shown) [Compound 171, 3-(5-fluoro-1′-methyl-2′-oxo[1′,2′-dihydro[3,3′-bipyridine]]-2-yl)-3-methoxy-5,5-dimethyl-6-oxocyclohex-1-ene-1-carbonitrile] | 136 |
| COC1(c2ncc(F)cc2-c2ccc(F)cc2)C=C(C#N)C(=O)C(C)(C)C1 (stereo not shown) [Compound 163, 3-[5-fluoro-3-(4-fluorophenyl)pyridin-2-yl]-3-methoxy-5,5-dimethyl-6-oxocyclohex-1-ene-1-carbonitrile] | 54 |
| COC1(c2nc(C)c(-c3ccccn3)s2)C=C(C#N)C(=O)C(C)(C)C1 (stereo not shown) [Compound 155, 3-methoxy-5,5-dimethyl-3-[4-methyl-5-(pyridin-2-yl)-1,3-thiazol-2-yl]-6-oxocyclohex-1-ene-1-carbonitrile] | 161 |
| COC1(c2ncc(F)cc2-c2cn(C)nc2C)C=C(C#N)C(=O)C(C)(C)C1 (single isomer, unassigned) [Compound 78, 3-[3-(1,3-dimethylpyrazol-4-yl)-5-fluoro-2-pyridyl]-3-methoxy-5,5-dimethyl-6-oxo-cyclohexene-1-carbonitrile] | 2 |
| COC1(c2ncc(F)cc2-c2cnn(CC(F)(F)F)c2)C=C(C#N)C(=O)C(C)(C)C1 (single isomer, unassigned) [Compound 228, 3-{5-fluoro-3-[1-(2,2,2-trifluoroethyl)-1H-pyrazol-4-yl]pyridin-2-yl}-3-methoxy-5,5-dimethyl-6-oxocyclohex-1-ene-1-carbonitrile] | 15 |
| COC1(c2sccc2C)C=C(C#N)C(=O)C(C)(C)C1 (single isomer, unassigned) [Compound 34, 3-methoxy-5,5-dimethyl-3-(3-methylthiophen-2-yl)-6-oxocyclohex-1-enecarbonitrile] | 12 |
| COC1(c2ncc(Cl)cc2C(F)F)C=C(C#N)C(=O)C(C)(C)C1 (single isomer, unassigned) [Compound 206, 3-[5-chloro-3-(difluoromethyl)pyridin-2-yl]-3-methoxy-5,5-dimethyl-6-oxocyclohex-1-ene-1-carbonitrile] | 159 |
| COC1(c2cncc(C)n2)C=C(C#N)C(=O)C2(CC2)C1 (stereo not shown) [Compound 131, 7-methoxy-7-(6-methylpyrazin-2-yl)-4-oxospiro[2.5]oct-5-ene-5-carbonitrile] | 464 |
| COC1(c2cc(C(F)(F)F)ccn2)C=C(C#N)C(=O)C(C)(C)C1 (stereo not shown) [Compound 1, 3-methoxy-5,5-dimethyl-6-oxo-3-[4-(trifluoromethyl)-2-pyridyl]cyclohexene-1-carbonitrile] | 408 |

| SMILES | EC50 [nM] |
| --- | --- |
| COC1(c2nc(C)cs2)C=C(C#N)C(=O)C(C)(C)C1 (stereo not shown) [Compound 142, 3-methoxy-5,5-dimethyl-3-(4-methyl-1,3-thiazol-2-yl)-6-oxocyclohex-1-ene-1-carbonitrile] | 60 |
| CO[C@]1(c2ncc(F)cc2C(F)F)C=C(C#N)C(=O)C(C)(C)C1 [Compound 42, (3S)-3-[3-(difluoromethyl)-5-fluoropyridin-2-yl]-3-methoxy-5,5-dimethyl-6-oxocyclohex-1-ene-1-carbonitrile] | 33 |
| COC1(c2ncc(F)cc2-c2cncc(C3CC3)c2)C=C(C#N)C(=O)C(C)(C)C1 (single isomer, unassigned) [Compound 232, 3-(5′-cyclopropyl-5-fluoro[3,3′-bipyridin]-2-yl)-3-methoxy-5,5-dimethyl-6-oxocyclohex-1-ene-1-carbonitrile] | 23 |
| COC1(c2cc(-c3cnn(C)c3)ccn2)C=C(C#N)C(=O)C(C)(C)C1 (stereo not shown) [Compound 112, 3-methoxy-5,5-dimethyl-3-[4-(1-methyl-1H-pyrazol-4-yl)pyridin-2-yl]-6-oxocyclohex-1-ene-1-carbonitrile] | 371 |
| COC1(c2cccc(-c3cnc(C)nc3)n2)C=C(C#N)C(=O)C2(CC2)C1 (single isomer, unassigned) [Compound 50, 7-methoxy-7-(6-(2-methylpyrimidin-5-yl)pyridin-2-yl)-4-oxospiro[2.5]oct-5-ene-5-carbonitrile] | 30 |
| COC1(c2ccccn2)C=C(C#N)C(=O)C(C)(C)C1 (stereo not shown) [Compound 11, 3-methoxy-5,5-dimethyl-6-oxo-3-(2-pyridyl)cyclohexene-1-carbonitrile] | 85 |
| COC1(c2ncc(F)cc2-c2cccc(=O)[nH]2)C=C(C#N)C(=O)C(C)(C)C1 (stereo not shown) [Compound 193, 3-(5′-fluoro-6-oxo[1,6-dihydro[2,3′-bipyridine]]-2′-yl)-3-methoxy-5,5-dimethyl-6-oxocyclohex-1-ene-1-carbonitrile] | > 10000 |
| COC1(c2ccc(C(F)(F)F)cn2)C=C(C#N)C(=O)C(C)(C)C1 (stereo not shown) [Compound 3, 3-methoxy-5,5-dimethyl-6-oxo-3-[5-(trifluoromethyl)-2-pyridyl]cyclohexene-1-carbonitrile] | 424 |
| COC1(c2ncccc2Br)C=C(C#N)C(=O)C(C)(C)C1 (stereo not shown) [Compound 22, 3-(3-bromo-2-pyridyl)-3-methoxy-5,5-dimethyl-6-oxo-cyclohexene-1-carbonitrile] | 45 |
| COC1(c2ncc(F)cc2-c2cnn(C)c2)C=C(C#N)C(=O)C(C)(C)C1 (single isomer, unassigned) [Compound 69, 3-[5-fluoro-3-(1-methyl-1H-pyrazol-4-yl)pyridin-2-yl]-3-methoxy-5,5-dimethyl-6-oxocyclohex-1-ene-1-carbonitrile] | 2 |
| COC1(c2ncc(F)cc2-c2cc(C)nc(C)c2)C=C(C#N)C(=O)C(C)(C)C1 (stereo not shown) [Compound 173, 3-(5-fluoro-2′,6′-dimethyl[3,4′-bipyridin]-2-yl)-3-methoxy-5,5-dimethyl-6-oxocyclohex-1-ene-1-carbonitrile] | 15 |
| COC1(c2ncc(F)cc2C(F)F)C=C(C#N)C(=O)C2(CC2)C1 (stereo not shown) [Compound 196, 7-[3-(difluoromethyl)-5-fluoropyridin-2-yl]-7-methoxy-4-oxospiro[2.5]oct-5-ene-5-carbonitrile] | 46 |
| COC1(c2cccc(-c3cnc(C)nc3)n2)C=C(C#N)C(=O)C2(CC2)C1 (stereo not shown) [Compound 128, 7-methoxy-7-[6-(2-methylpyrimidin-5-yl)pyridin-2-yl]-4-oxospiro[2.5]oct-5-ene-5-carbonitrile] | 145 |
| COC1(c2ncc(F)cc2-c2cnn(C)c2C)C=C(C#N)C(=O)C(C)(C)C1 (single isomer, unassigned) [Compound 71, 3-[3-(1,5-dimethyl-1H-pyrazol-4-yl)-5-fluoropyridin-2-yl]-3-methoxy-5,5-dimethyl-6-oxocyclohex-1-ene-1-carbonitrile] | 9 |
| COC1(c2ncc(C)cn2)C=C(C#N)C(=O)C(C)(C)C1 (single isomer, unassigned) [Compound 204, 3-methoxy-5,5-dimethyl-3-(5-methylpyrimidin-2-yl)-6-oxocyclohex-1-ene-1-carbonitrile] | 9 |
| COC1(c2ncc(F)cc2-c2ccc3nc(C)cn3c2)C=C(C#N)C(=O)C(C)(C)C1 (single isomer, unassigned) [Compound 201, 3-[5-fluoro-3-(2-methylimidazo[1,2-a]pyridin-6-yl)pyridin-2-yl]-3-methoxy-5,5-dimethyl-6-oxocyclohex-1-ene-1-carbonitrile] | 182 |
| COC1(c2ncccc2C(F)F)C=C(C#N)C(=O)C2(CC2)C1 (stereo not shown) [Compound 132, 7-[3-(difluoromethyl)pyridin-2-yl]-7-methoxy-4-oxospiro[2.5]oct-5-ene-5-carbonitrile] | 150 |
